Measurements: patent publication US20080175801A1, “Stable peroxide containing personal care compositions” (The Procter & Gamble Company, priority 2007, published 2008)
Like-named read-outs stand apart in the source and are kept apart here.

Assay: Accelerated stability of flavor components in peroxide mouthrinse, measured by gas chromatography
Type: physicochemical
Details: for % Reduction at day 17, Formula IA / % Reduction at day 31, Formula IA: Formula IA with Glass H polyphosphate radical scavenger; for % Reduction at day 17, Formula IA / % Reduction at day 31, Formula IA / % Reduction at day 17, Formula IB / % Reduction at day 31, Formula IB / % Reduction at day 17, Treated / % Reduction at day 31, Treated / % Reduction at day 17, Untreated / % Reduction at day 31, Untreated: component at 0.005%; for % Reduction at day 17, Formula IB / % Reduction at day 31, Formula IB: no radical scavenger, not treated to remove metals; for % Reduction at day 17, Treated / % Reduction at day 31, Treated: formulation IB treated with polymer supported chelant; for % Reduction at day 17, Treated / % Reduction at day 31, Treated / % Reduction at day 17, Untreated / % Reduction at day 31, Untreated: vs day 0; for % Reduction at day 17, Untreated / % Reduction at day 31, Untreated: formulation IB untreated
Procedure: The stability of the present compositions was assessed by measuring any changes in levels of peroxide, active component (cetylpyridinium chloride) and flavor components under storage conditions at 40° C. and 75% Relative Humidity.
A flavor mix consisting of Ethylbutyrate, Limonene, Decanal, Methylsalicylate, Carvone and Anethole (each flavor component at 0.005%) was added to the compositions. The resulting mouthrinse formulations were packaged in 500 ml PET bottles and placed on accelerated stability test chamber at 40° C. and 75% Relative Humidity conditions. The amount of peroxide in the samples was measured using the method described above and no significant changes were detected. However, radical activity was greater in the untreated sample vs. the treated sample as evidenced in greater degradation of flavor components in the untreated sample. The amount of each flavor component at time 0, 17 and 31 days was evaluated by gas chromatography (GC). Results are summarized in Table 2 below showing % reduction of each component and total flavor at days 17 and 31 from day 0. […] The treatment also […].
Formulation IA with Glass H polyphosphate as radical scavenger was compared with a sample of formulation IB (no radical scavenger) that was not treated to remove metals. […] The resulting mouthrinse formulations were packaged in 500 ml PET bottles and placed on accelerated stability test chamber at 40° C. and 75% Relative Humidity. The amount of each flavor component at time 0, 17 and 31 days were measured by gas chromatography (GC).

Structure (SMILES) | Stability of flavor component in the presence of peroxide | Effect of polyphosphate radical scavenger on stability of flavor component | % Reduction at day 17, Formula IA (40° C., 75% RH) | % Reduction at day 31, Formula IA (40° C., 75% RH) | % Reduction at day 17, Formula IB (40° C., 75% RH) | % Reduction at day 31, Formula IB (40° C., 75% RH) | % Reduction at day 17, Treated (40° C., 75% RH) | % Reduction at day 31, Treated (40° C., 75% RH) | % Reduction at day 17, Untreated (40° C., 75% RH) | % Reduction at day 31, Untreated (40° C., 75% RH) | Effect of polyphosphate radical scavenger on stability of flavor component (in words, formulation IA vs untreated IB, 40° C., 75% RH) | Stability of flavor component in the presence of peroxide (in words, formulation IB, 40° C., 75% RH)
COC(=O)c1ccccc1O [Methylsalicylate] | relatively stable |  |  |  |  |  |  |  |  |  |  | 
CCCCCCCCCC=O [Decanal] | significant decomposition | increased stability | 20% | 40% | 80% | 80% | 25% | 75% | 80% | 80% |  | 
C=C(C)C1CC=C(C)C(=O)C1 (stereo not drawn) [Carvone] |  |  | 50% | 50% | 20% | 20% | 20% | 20% | 20% | 20% |  | 
CC=Cc1ccc(OC)cc1 [Anethole] | significant decomposition | increased stability | 60% | 80% | 100% | 100% | 60% | 80% | 100% | 100% |  | 
CCCC(=O)OCC [Ethylbutyrate] |  | increased stability | 0% | 0% | 20% | 20% | 25% | 25% | 20% | 20% |  | 
C=C(C)[C@H]1CC=C(C)CC1 [Limonene] |  |  | 25% | 25% | 100% | 100% | 75% | 75% | 100% | 100% | increased stability | significant decomposition
